# From publication PMC10762035, “Molecular basis of human trace amine-associated receptor 1 activation” (Nature Communications, 2024)
# Values joined by “and” are separate entries in the source; they are usually repeats but may differ in a detail not shown here. Equal entries are not always repeated.
# Experiments:
# [1] = molecular target: T1, hTA1 (Homo sapiens, UniProt Q96RJ0); assay: GloSensor cAMP accumulation assay, concentration response, wild-type hTA1 in transfected HEK293T cells; format: cell-based; conditions: log[Compound], replicate wells;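 further: luminescence read after 30 min compound exposure at room temperature in cells preloaded with D-Luciferin, reflecting Gs-driven cAMP rise, efficacy scaled to the maximal β-PEA response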
# T1 construct: expressed in transfected cells; host or cells: HEK293T
# T1 sequence (Q96RJ0 1-339): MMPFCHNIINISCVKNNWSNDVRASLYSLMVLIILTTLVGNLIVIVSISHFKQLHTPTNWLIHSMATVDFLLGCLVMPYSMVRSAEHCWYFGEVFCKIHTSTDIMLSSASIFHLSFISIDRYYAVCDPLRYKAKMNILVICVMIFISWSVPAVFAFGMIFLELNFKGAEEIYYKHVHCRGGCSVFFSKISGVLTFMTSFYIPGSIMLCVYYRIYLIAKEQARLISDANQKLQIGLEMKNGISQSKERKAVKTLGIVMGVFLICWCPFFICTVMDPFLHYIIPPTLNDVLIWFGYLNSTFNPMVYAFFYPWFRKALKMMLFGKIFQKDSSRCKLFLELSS
# [2] = molecular target: T1, hTA1; assay: Screen of 89 aminergic compounds at 10 µM, cAMP accumulation in HEK293T cells; format: cell-based; conditions: 10 µM of compound; HEK293T; threshold log2-fold change of 2;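 further: HEK293T cells co-transfected with hTA1 and GloSensor cAMP reporter, cAMP accumulation detected by luminescence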
Structure (SMILES),Normalized Luminescence Counts for WT hTA1 ([1]; M = -5),Normalized Luminescence Counts for WT hTA1 ([1]; M = -5.522),Normalized Luminescence Counts for WT hTA1 ([1]; M = -6),Normalized Luminescence Counts for WT hTA1 ([1]; M = -6.522),Normalized Luminescence Counts for WT hTA1 ([1]; M = -7),Normalized Luminescence Counts for WT hTA1 ([1]; M = -7.522),Normalized Luminescence Counts for WT hTA1 ([1]; M = -8),Normalized Luminescence Counts for WT hTA1 ([1]; M = -8.522),Normalized Luminescence Counts for WT hTA1 ([1]; M = -9),Normalized Luminescence Counts for WT hTA1 ([1]; M = -9.522),Normalized Luminescence Counts for WT hTA1 ([1]; M = -10),Normalized Luminescence Counts for WT hTA1 ([1]; M = -10.522),Normalized Luminescence Counts for WT hTA1 ([1]; M = -11),Normalized Luminescence Counts for WT hTA1 ([1]; M = -11.522),Normalized Luminescence Counts for WT hTA1 ([1]; M = -12),Normalized Luminescence Counts for WT hTA1 ([1]; M = -12.522),increase of signal over DMSO-treated controls (hTA1 activation) [2] [fold]
CCCN1C[C@H](CSC)C[C@@H]2c3cccc4[nH]cc(c34)C[C@H]21 [pergolide],13.9149 and 11.9176 and 12.507,9.888 and 9.789 and 7.596,6.6135 and 5.238 and 5.4348,5.599 and 3.8632 and 6.122,3.11 and 1.735 and 0.9819,1.047 and 0.5563 and 0.1634,0.7855 and 0.1634 and 0.8182,-0.0658 and 0.09791 and -0.0003118,-0.426 and -0.3932 and -0.5242,-0.8516 and -0.0003118 and -0.6224,-0.3277 and 0.03243 and -0.5897,-0.7206 and -0.2622 and 0.3598,0.3926 and 0.1634 and 0.4253,0.4253 and 1.047 and -0.2622,0.3271 and -0.09854 and 0.6218,0.5236 and 0.9492 and 0.2616,≥ 4
O=C1Nc2cc(Cl)c(Cl)cc2N2CCNCC12 (centres unmarked) [WAY161503],13.2601 and 18.8261 and 16.7307 and 26.6058 and 24.591 and 22.5763,7.105 and 8.152 and 8.742 and 7.88 and 6.893 and 7.327,0.3926 and 0.6218 and 0.4581 and 2.389 and 1.639 and 1.7967,-0.0003118 and -0.03305 and -0.426 and 0.5325 and 0.2955 and 0.6511,-0.426 and -1.114 and -0.7861 and -0.2575 (2×) and -0.3366,-0.8516 and -1.277 and -0.6879 and -0.3366 and -0.4946 and -1.166,-0.09854 and -0.3605 (2×) and 0.09799 and 0.6511 and -0.3761,-0.3605 and -0.7206 and -0.3932 and 1.165 and 1.046 and 0.6116,-1.048 and -0.2622 and -0.8516 and -0.06003 and 0.2165 and 0.414,-1.277 and -0.8516 and -0.7861 and 0.6116 and 0.01898 and -0.6526,-0.7206 and -0.7534 and -0.3605 and -0.8106 and -0.1785 and -1.087,-0.5897 and -0.09854 and -0.6224 and 0.01898 and -0.3761 and -0.7316,0.09791 and 0.03243 and -0.6224 and -0.2971 and 0.5325 and 0.3745,-0.0003118 and -0.5242 and 0.06517 and -0.09953 and -0.4156 and 0.177,-0.3277 and -0.295 and -0.8189 and 0.4535 and -0.2971 and -0.4156,-0.3932 and -0.5897 (2×) and 0.4535 and -0.4551 and 0.09799,≥ 4
CN1C[C@H](C(=O)N[C@]2(C)O[C@@]3(O)[C@@H]4CCCN4C(=O)[C@H](Cc4ccccc4)N3C2=O)C=C2c3cccc4[nH]cc(c34)C[C@H]21 [ergotamine],44.5775 and 42.7529 and 37.8036,33.1851 and 35.1808 and 34.0176,22.5339 and 18.3829 and 18.9303,13.3539 and 12.6012 and 11.6889,5.28 and 4.447 and 4.037,2.783 and 2.007 and 2.3948,1.311 and 0.7184 and 0.9351,1.095 and 0.9921 and 1.163,0.7184 and 0.3649 and 0.5816,0.2737 and 0.2167 and 0.1254,0.1482 and 0.4219 and 0.2395,0.1825 and 0.5018 and 0.1939,0.114 and 0.536 and 0.4333,0.6956 and 0.3649 and 0.8895,0.479 and 0.6728 and 0.4562,0.3991 and 0.593 and 0.5018,≥ 4
CCN(CC)C(=O)[C@@H]1C=C2c3cccc4[nH]cc(c34)C[C@H]2N(C)C1 [LSD],23.2463 and 21.0198 and 23.6719 and 20.4035 and 14.0827 and 19.0998,8.12 and 8.709 and 6.057 and 5.51 and 6.34 and 6.182,3.405 and 1.833 (2×) and 1.7572 and 2.35 and 2.5473,0.7855 and 1.3421 and 1.375 and 0.5325 and 0.8881 and 0.6116,-0.0003118 and 0.7527 and 0.5563 and 0.256 and -0.2575 and 0.2165,-0.164 and -0.426 and 0.2944 and -0.4946 (2×) and -0.09953,0.7855 and 0.6873 and 0.03243 and 0.1375 and 0.6116 and -0.2575,-0.2295 and 0.4253 and 0.09791 and 0.05849 and -0.2971 and 0.6511,-0.8516 and -0.1968 and 0.1634 and 0.493 and -0.09953 and 0.2955,-0.295 and -0.3605 and -0.426 and -0.1785 and -0.3761 and -0.06003,-0.09854 and 0.2289 and -0.3605 and -0.4946 and -0.5736 and -0.6131,-0.4587 (2×) and -0.1313 and -0.218 and -1.245 and 0.01898,-0.09854 and 0.3598 and 0.6873 and -0.1785 and -0.09953 and 1.007,0.2289 and 1.08 and 0.3926 and 1.086 and 1.046 and -0.2971,-0.4587 and 0.1634 and 0.4253 and 0.7696 and -0.2575 and 1.836,1.735 and 0.5236 and 0.2616 and 0.05849 and -0.218 and 0.3745,≥ 4
